Assays:
[1] = clinical; conditions: both, human, in vivo, iv
Description: (§1) Methods: This was a 2-part study in healthy human volunteers (18-45 years). […] All treatments were administered 30 minutes after a subcutaneous injection of low-molecular weight heparin to counteract the increase in clotting factors in the healthy volunteer population. […] Topical effects were also examined. Pain upon patch application was scored and compared to subcutaneous saline injection with a 27-gauge needle. […] Bleeding assessment (visual and photographic) were measured 2 min post-system removal. […] Routine safely assessments were also included, including the following: solicitation of Adverse Events (AEs), measurement of vital signs, measurement of serum sodium concentration and platelets, and measurement of urine output, specific gravity and osmolality.
Data analysis included a review of PK parameters (Cmax, Tmax, elimination rate constant, apparent half-life, and AUCinf) and were estimated using standard methodology. […] The intra-individual (sigma) and inter-individual (CV %) variabilities were estimated using additive+proportional and log normal distributions, respectively. Model performance between hierarchical models was assessed both numerically (Objective Function, OBJ) and graphically (comparison of the predicted and observed data). A reduction of^3 6.7 units in OBJ per additional structural model parameter was considered significant at p<0.01 on the x^2 distribution.

[2] = in vivo; conditions: hairless, guinea pig
Description: The retainer ring containing the patch was loaded onto an impact applicator, and the patch was applied to the prepared skin site with an impact energy of 0.26 J, delivered in less than 10 ms.
Efficiency of delivery was calculated as the percentage delivered of the total dose coated onto the array. For mass balance calculations, drug residuals left on the skin and on the array were also taken into account.

[3] = test system: plasma coagulation Factor VIII; assay: pharmacodynamic effect on plasma coagulation Factor VIII levels (one-stage clotting assay); type: in vivo, human
Description: as §1

[4] = skin response / tolerability of microneedle patches; type: in vivo
Excerpt: Following system removal, skin sites were visually assessed for signs of erythema, edema, bleeding, and infection until the sites returned to normal.

[5] = in vivo; conditions: hairless, guinea pig; remark: listed apart in the source
[6] = cited from earlier work
[7] = desmopressin-coated microneedle patches

Q: Which Tmax [1] does the source give for `NC(=O)CC[C@@H]1NC(=O)[C@H](Cc2ccccc2)NC(=O)[C@H](Cc2ccc(O)cc2)NC(=O)CCSSC[C@@H](C(=O)N2CCC[C@H]2C(=O)N[C@H](CCCN=C(N)N)C(=O)NCC(N)=O)NC(=O)[C@H](CC(N)=O)NC1=O` [desmopressin] here?
A: Its Tmax is 0.26 h.

Q: And the t1/2 [1]?
A: Its t1/2 is 3.8 ± 1.25 h.

Q: And the Tmax ([1]; 15 ug, time of peak concentration)?
A: The Tmax was 0.25 h.

Q: What about the Tmax ([1]; Tmax) of the same compound?
A: The Tmax was 0.5 h.

Q: And the half-life ([1]; mean half-life)?
A: The half-life was 3.1 to 3.8 h.

Q: What about the half-life ([1]; t1/2) of the same compound?
A: Its half-life is 3.1 ± 0.38 h.

Q: What about the dose excreted ([2]; iv, 20 ug) of the same compound?
A: Its dose excreted is 71%.

Q: What about the bioavailability ([2]; outbred euthymic (ibm:GOHI-hr and IAF:HA-HO-hr)) of the same compound?
A: Its bioavailability is 85%.

Q: And the “Factor VIII value” ([3]; IV-15 ug)?
A: Its value is 280 % of baseline value.

Q: What about the “Factor VIII value” ([3]; IV-30 ug) of the same compound?
A: The value was 321 % of baseline value.

Q: What about the “pharmacological activity of absorbed desmopressin (factor VIII measurements)” value ([3]; desmopressin absorbed after MFLX / IV) of the same compound?
A: The value was “pharmacologically active”.

Q: And the “tolerability of the desmopressin-coated microneedle patches” value ([4]; 5 or 15 min wear)?
A: Its value is “well tolerated”.

Q: What about the “erythema following removal of the systems” value [4, 7] of the same compound?
A: The value was “only mild erythema”.

Q: And the “signs of edema, bleeding, or infection” value [4, 7]?
A: Its value is “no signs of edema, bleeding, or infection”.

Q: What about the “time to resolution of erythema” value [4, 7] of the same compound?
A: Its value is no more than 24 h.

Q: What about the AUC ([5]; 82 ug) of the same compound?
A: Its AUC is 76 ng·h/mL.

Q: What about the Cmax ([5]; 82 ug) of the same compound?
A: Its Cmax is 49 ng/mL.

Q: And the AUC ([5]; iv, 11 ug)?
A: Its AUC is 50.5 ng·h/mL.

Q: What about the Tmax ([5]; outbred euthymic (ibm:GOHI-hr and IAF:HA-HO-hr), 82 ug) of the same compound?
A: Its Tmax is 1 h.

Q: What about the nasal bioavailability ([6]; human, in vivo, inhaled or intranasal) of the same compound?
A: Its nasal bioavailability is 3.4%.

Q: What about the oral bioavailability ([6]; oral administration) of the same compound?
A: Its oral bioavailability is 0.1%.

From US20060093658A1 (priority 2004, published 2006)
